According to patent US10227327B2, “Inhibitors of metallo-beta-lactamase (MBL) comprising a zinc chelating moiety” (Universitetet I Oslo, priority 2013, dated 2019):

Columns and labels:
[1] = target: VIM-2 (Escherichia coli, UniProt Q5U7L7); assay: IC50 determination against purified MBL, nitrocefin reporter substrate; assay type: biochemical; conditions: purified enzyme 1 nM, nitrocefin 50 μM, 25° C.
Description: (§1) General Protocol for Determination of IC50-Values
(§2) Buffers: A: 50 mM HEPES pH 7.2, 100 μM ZnCl2
(§3) • B: 50 mM HEPES pH 7.2, 100 μM ZnCl2 and 400 μg/ml Bovine Serum Albumin (BSA) Equipment: SpectraMax 96 well reader • 96 well plates • Cuvettes • General plastics: dilution tubes, eppendorfs etc. Method: Inhibitors: a. Dissolved in 100% DMSO at a concentration of 10 mM • b. Dissolve the inhibitor in buffer A to a concentration of 25% DMSO. No more than 2.5% DMSO is tolerable in the assay. 100% DMSO (10 mM); […]; […] • c. Make a 2-fold dilution series of the inhibitor. At least 8 dilutions should be made. See example in table 1 Reporter Substrate (Nitrocefin): • a. Dilute a small amount of nitrocefin in 1 ml of DMSO • b. Add 990 μl buffer A+10 μl of nitrocefin to a cuvette. • c. Measure initial OD at absorbance specific for the substrate • d. Add purified enzyme to the cuvette and let the hydrolysis run to completion (the more concentrated the enzyme the faster the hydrolysis will run) • e. Measure the end OD • f. Calculate the concentration of substrate: [(End OD−Initial OD)×dilution factor]/Δε (Δε Nitrocefin=17400) • g. Dilute nitrocefin to 100 μM in buffer A Enzyme: Dilute purified enzyme in buffer B to a concentration of 10 nM. Assay: a. Set the settings and temperature on the Spectramax/software: • I. Kinetics • II. λ: 482 • III. Time: 20 min • IV. Interval: 2-5 sec. • V. Mix before 1st read: 5 sec. • VI. Temp: 25° C. • b. Add 30 μl buffer A, 10 μl purified enzyme (final concn. 1 nM), and 10 μl inhibitor to assay wells (duplicates for each inhibitor concentration). Also include a negative control. Wells with no added inhibitor, just 40 μl buffer A. See illustration in table 1. • c. Incubate the plate in the reader for 5 min. • d. Add 50 μl nitrocefin (final concn. 50 μM) to assay wells. This should be done quickly—preferably with an electronic multi-channel pipette. • e. Start the readings immediately. Determine: the initial velocity (V0) for each inhibitor concentration and calculate IC50.

[2] = target: VIM-2 in E. coli SNO3 containing pET26b-blaVIM-2 (Escherichia coli, UniProt Q5U7L7); assay: MBL inhibition in whole E. coli cells expressing MBL (nitrocefin hydrolysis); assay type: cell-based; conditions: whole cell, test substance 250 μM
[3] = target: GIM-1 in E. coli SNO3 containing pET26b-blaGIM-1 (Pseudomonas aeruginosa, UniProt Q704V1); assay: as above; assay type: cell-based; conditions: whole cell, test substance 250 μM
Sequence of GIM-1 in E. coli SNO3 containing pET26b-blaGIM-1 (Q704V1 19-250 limits assumed): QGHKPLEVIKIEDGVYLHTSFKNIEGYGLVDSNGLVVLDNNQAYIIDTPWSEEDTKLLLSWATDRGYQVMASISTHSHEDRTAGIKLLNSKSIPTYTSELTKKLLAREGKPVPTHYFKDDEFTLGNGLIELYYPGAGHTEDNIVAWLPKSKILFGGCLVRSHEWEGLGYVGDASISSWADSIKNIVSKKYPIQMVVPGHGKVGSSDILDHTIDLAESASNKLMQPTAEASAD

[4] = target: GIM-1 (Pseudomonas aeruginosa, UniProt Q704V1); assay: IC50 determination against purified MBL, nitrocefin reporter substrate; assay type: biochemical; conditions: purified enzyme 1 nM, nitrocefin 50 μM, 25° C.
Sequence of GIM-1 (Q704V1 19-250 limits assumed): as above
Description: as §1, §2, §3

[5] = target: NDM-1 (Klebsiella pneumoniae, UniProt C7C422); assay: as above; assay type: biochemical; conditions: purified enzyme 1 nM, nitrocefin 50 μM, 25° C.
Sequence of NDM-1 (C7C422 whole entry, looked up, species assumed): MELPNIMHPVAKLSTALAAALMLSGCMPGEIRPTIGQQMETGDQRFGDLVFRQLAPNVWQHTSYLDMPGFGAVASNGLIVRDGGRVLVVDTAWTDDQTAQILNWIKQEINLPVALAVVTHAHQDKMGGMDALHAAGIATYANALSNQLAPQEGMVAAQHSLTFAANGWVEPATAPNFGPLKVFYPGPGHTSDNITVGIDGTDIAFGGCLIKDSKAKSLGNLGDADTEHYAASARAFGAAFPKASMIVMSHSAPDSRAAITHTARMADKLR
Description: as §1, §2, §3

[6] = test system: MBL-negative clinical strains; assay: Synergy with meropenem in MBL-negative clinical strains; assay type: cell-based
Description: (§4) General Protocol for Microbroth Dilution Method for Evaluating Antibacterial Activity of Compounds or Synergistic Effect of Compound-Antibiotic Combination
(§5) • Plate bacterial strain(s) on appropriate media: • Gram-negative bacteria with ESBLs or carbapenemases: green agar plates with 100 mg/L ampicillin • Gram-negative bacteria without β-lactamases: green agar plates • Gram-positive bacteria (Staphylococci and Enterococci): blood agar plates • Incubate o.n. at 37° C. Day 2: Prepare the Bacterial Inoculum: • Prepare a 0.5 McFarland suspension of bacteria in 0.85% NaCl. (Should be used within 15 min of preparation). • Dilute the 0.5 McFarland suspension 1:100 into MH broth. Check the inoculum by diluting the prepared bacterial suspension 1:100 (10 μl bacterial suspension+990 μl 0.85% NaCl). Plate 10 μl of the dilution on MH agar plates (×2). Incubate o.n. at 37° C., count the colonies and calculate the final CFU/ml inoculum in the plate by multiplying the average number of colonies with 10000 and divide by 2. The final inoculum should be between 3-7×10^5 CFU/ml. • Add 50 μl of the prepared bacterial suspension to each well in the microtiter plate except negative growth control. Preparation of Compounds/Antibiotics • Calculate the desired concentration-range and volume of the compounds/antibiotics in the assay. […] Dilute the stock solution in MH broth. […]

[7] = test system: E. coli 50739467 (MBL negative); assay: Microbroth dilution, meropenem MIC with/without compound; assay type: cell-based; conditions: 50739467 E. coli MBL negative; for Meropenem MIC (mg/L) in presence of compound: compound at 125 μM
Description: as §4
(§6) • Plate bacterial strain(s) on appropriate media: • Gram-negative bacteria with ESBLs or carbapenemases: green agar plates with 100 mg/L ampicillin • Gram-negative bacteria without β-lactamases: green agar plates • Gram-positive bacteria (Staphylococci and Enterococci): blood agar plates • Incubate o.n. at 37° C. Day 2: Prepare the Bacterial Inoculum: • Prepare a 0.5 McFarland suspension of bacteria in 0.85% NaCl. (Should be used within 15 min of preparation). • Dilute the 0.5 McFarland suspension 1:100 into MH broth. Check the inoculum by diluting the prepared bacterial suspension 1:100 (10 μl bacterial suspension+990 μl 0.85% NaCl). Plate 10 μl of the dilution on MH agar plates (×2). Incubate o.n. at 37° C., count the colonies and calculate the final CFU/ml inoculum in the plate by multiplying the average number of colonies with 10000 and divide by 2. The final inoculum should be between 3-7×10^5 CFU/ml. • Add 50 μl of the prepared bacterial suspension to each well in the microtiter plate except negative growth control. Preparation of Compounds/Antibiotics • Calculate the desired concentration-range and volume of the compounds/antibiotics in the assay. […] Dilute the stock solution in MH broth. Make subsequent 2-fold dilutions in MH broth of the desired concentrations if a concentration range is to be tested (remember the extra dilution factor in the assay plate). Always include extra volume for pipetting. Take into consideration stock solutions that are made in buffers that have an effect on bacterial growth (e.g. DMSO). Assay: • Determining the MIC of compounds/antibiotics alone: • Add 25 μl of each concentration of compound/antibiotic to row 2-11 (highest concentration in row 2) • Add 25 μl MH broth to row 2-11 • Add 50 μl MH broth to row 12 (positive control) • Add 100 μl MH broth to row 1 • Add 50 μl bacterial suspension to row 2-12. • Determining the MIC of antibiotics+compounds: • Add 25 μl of each concentration of antibiotic to row 2-11 (highest concentration in row 2) • Add 25 μl of compound to row 2-11 • Add 50 μl MH broth to row 12 (positive control) • Add 100 μl MH broth to row 1 • Add 50 μl bacterial suspension to row 2-12. • Incubate the plate for 20 hrs at 37° C. and determine the MIC in the presence and absence of inhibitor.

[8] = test system: K. pneumoniae 50732159 (MBL negative); assay: as above; assay type: cell-based; conditions: 50732159 K. pneumoniae MBL negative; for Meropenem MIC (mg/L) in presence of compound: compound at 125 μM
Description: as §4, §6

[9] = test system: P. aeruginosa 50808021 (MBL negative); assay: as above; assay type: cell-based; conditions: compound at 125 μM; 50808021 P. aeruginosa MBL negative
Description: as §4, §6

[10] = test system: MBL-producing P. aeruginosa, K. pneumoniae and E. coli; assay: Synergy with meropenem in MBL-producing clinical strains; assay type: cell-based; conditions: compound 125 μM
Description: as §4, §5

[11] = test system: E. coli 50639799 (VIM-1); assay: Microbroth dilution, meropenem MIC with/without compound; assay type: cell-based; conditions: absence of inhibitor; 50639799 E. coli VIM-1
Description: as §4, §6

[12] = test system: E. coli K71-77 (NDM-1); assay: as above; assay type: cell-based; conditions: absence of inhibitor; K71-77 E. coli NDM-1
Description: as §4, §6

[13] = test system: K. pneumoniae A3-81 (VIM-1); assay: as above; assay type: cell-based; conditions: absence of inhibitor; A3-81 K. pneumoniae VIM-1
Description: as §4, §6

[14] = test system: K. pneumoniae K66-45 (NDM-1); assay: as above; assay type: cell-based; conditions: absence of inhibitor; K66-45 K. pneumoniae NDM-1
Description: as §4, §6

SMILES	IC50 [1] [µM]	inhibition at 250 µM [2] [%]	inhibition at 250 µM [3] [%]	IC50 [4] [µM]	IC50 [5] [µM]	further results
COc1ccc(Cn2cc(CN(Cc3ccccn3)Cc3ccccn3)nn2)cc1 [Example 3, 1-(1-(4-methoxybenzyl)-1H-1,2,3-triazol-4-yl)-N,N-bis(pyridin-2-ylmethyl)methanamine]	19.8	74	15.7	–	–	–
COc1cc(-n2cc(CN(Cc3ccccn3)Cc3ccccn3)nn2)cc(OC)c1OC [Example 5, 1-(pyridin-2-yl)-N-(pyridin-2-ylmethyl)-N-((1-(3,4,5-trimethoxyphenyl)-1H-1,2,3-triazol-4-yl)methyl)methanamine]	11.5	73.8	14.4	0.79	–	–
O=[N+]([O-])c1ccc(Cn2cc(CN(Cc3ccccn3)Cc3ccccn3)nn2)cc1 [Example 6, 1-(1-(4-nitrobenzyl)-1H-1,2,3-triazol-4-yl)-N,N-bis(pyridin-2-ylmethyl)methanamine]	40.9	82.1	20.6	0.71	–	–
COc1cc(Cn2cc(CN(Cc3ccccn3)Cc3ccccn3)nn2)cc(OC)c1OC [Example 7, 1-(pyridin-2-yl)-N-(pyridin-2-ylmethyl)-N-((1-(3,4,5-trimethoxybenzyl)-1H-1,2,3-triazol-4-yl)methyl)methanamine]	18.7	75.3	12.5	0.14	–	–
COc1ccc(Cn2cc(CN(Cc3ccccn3)Cc3ccccn3)nn2)cc1[N+](=O)[O-] [Example 8, 1-(1-(4-methoxy-3-nitrobenzyl)-1H-1,2,3-triazol-4-yl)-N,N-bis(pyridin-2-ylmethyl)methanamine]	14.8	83	22.2	1.03	1.06	–
COc1ccc(Cn2cc(CN(Cc3ccccn3)Cc3ccccn3)nn2)cc1Br [Example 9]	19	84.2	14.8	3.15	0.6	–
COc1ccc(-n2cc(CN(Cc3ccccn3)Cc3ccccn3)nn2)c(OC)c1 [Example 11, 1-(1-(2,4-dimethoxyphenyl)-1H-1,2,3-triazol-4-yl)-N,N-bis(pyridin-2-ylmethyl)methanamine]	12.2	75.1	16.5	0.86	–	–
FC(F)(F)c1ccc(-n2cc(CN(Cc3ccccn3)Cc3ccccn3)nn2)cc1 [Example 12, 1-(pyridin-2-yl)-N-(pyridin-2-ylmethyl)-N-((1-(4-(trifluoromethyl)phenyl)-1H-1,2,3-triazol-4-yl)methyl)methanamine]	12.9	64.2	15.7	1.1	–	synergistic effect with meropenem [6]: No synergistic effect
COc1ccc(-n2cc(CN(Cc3ccccn3)Cc3ccccn3)nn2)cc1 [Example 13, 1-(1-(4-methoxyphenyl)-1H-1,2,3-triazol-4-yl)-N,N-bis(pyridin-2-ylmethyl)methanamine]	24.9	82	20.6	1.43	0.72	–
C[C@@H](N)C(=O)N[C@H](C)C(=O)NCCc1ccc(NC(=O)CN(Cc2ccccn2)Cc2ccccn2)cc1.Cl [Example 24, (R)-1-(((R)-1-((4-(2-(bis(pyridin-2-ylmethyl)amino)acetamido)phenethyl)amino)-1-oxopropan-2-yl)amino)-1-oxopropan-2-aminium chloride]	22.8	98.2	69.2	0.4	0.52	Meropenem MIC (mg/L) in presence of compound [7]: 0.5 mg/L; Meropenem MIC (mg/L) in presence of compound [8]: 32 mg/L; Meropenem MIC (mg/L) in presence of compound [9]: 128 to 256 mg/L; synergistic activity with meropenem [10]: strong synergistic potentiation of meropenem; synergistic effect with meropenem [6]: No synergistic effect
C[C@@H](O)[C@H]1C(=O)N2C(C(=O)O)=C(S[C@@H]3CN[C@H](C(=O)N(C)C)C3)[C@H](C)[C@H]12 [MEM, Meropenem]	–	–	–	–	–	Meropenem MIC [11]: 8 to 16 µg/mL; Meropenem MIC ([7]; absence of inhibitor): 0.5 µg/mL; Meropenem MIC [12]: 1 to 4 µg/mL; Meropenem MIC ([8]; absence of inhibitor): 32 µg/mL; Meropenem MIC [13]: 64 to 256 µg/mL; Meropenem MIC [14]: 32 to 64 µg/mL
c1ccc(CN(CCN(Cc2ccccn2)Cc2ccccn2)Cc2ccccn2)nc1 [TPEN, N,N,N′,N′-tetrakis(2-pyridylmethyl) ethylenediamine, reference compound]	0.3	–	–	0.61	–	Meropenem MIC (mg/L) in presence of compound [7]: 1 mg/L; Meropenem MIC (mg/L) in presence of compound [8]: ≤0.064 mg/L; Meropenem MIC (mg/L) in presence of compound [9]: 64 mg/L; synergistic activity with meropenem [10]: Synergistic activity
